One experiment addresses T1, USP19 (Homo sapiens, UniProt O94966).
T1 sequence (O94966 1-1318): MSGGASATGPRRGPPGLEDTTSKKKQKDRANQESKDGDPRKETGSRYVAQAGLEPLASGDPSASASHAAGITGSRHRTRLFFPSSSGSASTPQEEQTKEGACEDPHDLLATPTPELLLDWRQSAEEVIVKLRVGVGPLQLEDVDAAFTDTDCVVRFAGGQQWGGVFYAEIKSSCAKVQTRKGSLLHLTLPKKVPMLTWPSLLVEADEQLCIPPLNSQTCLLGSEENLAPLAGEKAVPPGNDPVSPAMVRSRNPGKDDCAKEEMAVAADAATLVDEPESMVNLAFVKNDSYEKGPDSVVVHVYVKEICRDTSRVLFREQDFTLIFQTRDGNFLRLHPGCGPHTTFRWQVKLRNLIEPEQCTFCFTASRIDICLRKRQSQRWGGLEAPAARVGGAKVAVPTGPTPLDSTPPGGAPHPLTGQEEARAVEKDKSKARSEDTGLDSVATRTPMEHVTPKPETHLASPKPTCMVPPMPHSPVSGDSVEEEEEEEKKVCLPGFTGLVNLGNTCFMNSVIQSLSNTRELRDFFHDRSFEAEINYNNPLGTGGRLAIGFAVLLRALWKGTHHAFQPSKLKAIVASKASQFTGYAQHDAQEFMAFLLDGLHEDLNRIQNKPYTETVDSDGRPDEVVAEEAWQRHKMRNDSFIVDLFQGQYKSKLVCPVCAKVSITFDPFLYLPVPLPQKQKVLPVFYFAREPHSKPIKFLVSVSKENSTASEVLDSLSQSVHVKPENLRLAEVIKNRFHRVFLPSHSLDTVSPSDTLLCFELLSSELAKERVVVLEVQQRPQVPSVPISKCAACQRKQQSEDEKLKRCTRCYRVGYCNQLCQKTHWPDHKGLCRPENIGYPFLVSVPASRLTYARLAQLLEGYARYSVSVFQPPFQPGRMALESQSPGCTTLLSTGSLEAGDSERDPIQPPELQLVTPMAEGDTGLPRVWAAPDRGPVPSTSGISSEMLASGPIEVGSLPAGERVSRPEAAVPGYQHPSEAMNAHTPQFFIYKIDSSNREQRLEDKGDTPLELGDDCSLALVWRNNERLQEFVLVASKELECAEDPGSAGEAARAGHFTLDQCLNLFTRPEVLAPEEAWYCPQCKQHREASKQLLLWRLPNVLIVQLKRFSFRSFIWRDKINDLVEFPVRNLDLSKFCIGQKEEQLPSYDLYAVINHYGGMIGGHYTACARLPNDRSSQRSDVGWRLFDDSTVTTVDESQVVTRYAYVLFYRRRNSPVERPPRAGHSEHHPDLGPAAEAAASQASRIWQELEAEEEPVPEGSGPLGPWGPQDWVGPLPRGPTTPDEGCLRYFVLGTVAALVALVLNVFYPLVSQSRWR
Nature of the experiment: biochemical. Also noted: Ubiquigent DUB profiler selectivity panel, remaining enzyme activity as % of control. To be noted: read-out: % of control remaining. The method in brief:
(§1)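 CMPD-39 selectivity was profiled at 1-100 μM across >40 DUBs. Cellular engagement used 2 h CMPD-39 pretreatment, then HA-Ub-PA probe for 10 min at 37°C, with USP30 band shift on immunoblot. TOMM20 ubiquitylation was blotted in YFP-PRKN hTERT-RPE1 cells after 1 h antimycin A/oligomycin A (1 μM each).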

Another experiment concerns the target USP46/UAF1/WDR20 (Homo sapiens, UniProt P62068). Nature of the experiment: biochemical. More on the design: Ubiquigent DUB profiler selectivity panel, remaining enzyme activity as % of control. Particulars: read-out: % of control remaining. The procedure, abridged: as §1

We go through one compound from PMC8645336, “Benchmarking a highly selective USP30 inhibitor for enhancement of mitophagy and pexophagy” (Life Science Alliance, 2021).

Each structure is given as a SMILES string.

Sequence of USP46/UAF1/WDR20 (P62068 whole entry): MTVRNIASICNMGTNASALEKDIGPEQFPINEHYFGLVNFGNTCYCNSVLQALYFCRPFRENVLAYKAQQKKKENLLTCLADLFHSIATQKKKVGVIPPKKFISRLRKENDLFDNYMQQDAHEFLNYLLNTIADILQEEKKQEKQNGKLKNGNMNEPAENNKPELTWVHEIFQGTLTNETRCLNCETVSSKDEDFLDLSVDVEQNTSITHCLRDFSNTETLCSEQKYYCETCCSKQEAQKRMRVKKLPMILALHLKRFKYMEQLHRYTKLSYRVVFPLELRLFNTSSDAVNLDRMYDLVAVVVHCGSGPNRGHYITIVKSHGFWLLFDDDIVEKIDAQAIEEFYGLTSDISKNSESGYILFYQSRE
Sequence of USP46/UAF1/WDR20 (Q8TAF3 whole entry partner): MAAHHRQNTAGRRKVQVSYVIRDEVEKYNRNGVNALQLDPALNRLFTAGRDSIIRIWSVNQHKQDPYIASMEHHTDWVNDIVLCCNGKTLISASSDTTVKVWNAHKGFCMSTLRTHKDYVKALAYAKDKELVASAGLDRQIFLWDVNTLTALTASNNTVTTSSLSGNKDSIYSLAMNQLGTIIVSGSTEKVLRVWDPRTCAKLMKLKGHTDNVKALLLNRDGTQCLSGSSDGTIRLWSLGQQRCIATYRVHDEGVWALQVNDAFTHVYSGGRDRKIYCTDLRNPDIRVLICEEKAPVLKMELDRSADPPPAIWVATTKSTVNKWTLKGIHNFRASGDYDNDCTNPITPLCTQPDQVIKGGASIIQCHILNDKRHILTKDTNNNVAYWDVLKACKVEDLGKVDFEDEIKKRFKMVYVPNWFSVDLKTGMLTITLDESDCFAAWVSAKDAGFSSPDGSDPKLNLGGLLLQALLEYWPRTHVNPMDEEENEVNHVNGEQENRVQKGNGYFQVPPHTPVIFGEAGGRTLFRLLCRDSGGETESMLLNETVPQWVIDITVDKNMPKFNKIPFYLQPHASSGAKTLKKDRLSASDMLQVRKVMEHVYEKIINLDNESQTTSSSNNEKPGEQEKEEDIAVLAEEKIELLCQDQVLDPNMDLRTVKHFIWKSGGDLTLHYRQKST
Sequence of USP46/UAF1/WDR20 (Q8TBZ3 whole entry partner): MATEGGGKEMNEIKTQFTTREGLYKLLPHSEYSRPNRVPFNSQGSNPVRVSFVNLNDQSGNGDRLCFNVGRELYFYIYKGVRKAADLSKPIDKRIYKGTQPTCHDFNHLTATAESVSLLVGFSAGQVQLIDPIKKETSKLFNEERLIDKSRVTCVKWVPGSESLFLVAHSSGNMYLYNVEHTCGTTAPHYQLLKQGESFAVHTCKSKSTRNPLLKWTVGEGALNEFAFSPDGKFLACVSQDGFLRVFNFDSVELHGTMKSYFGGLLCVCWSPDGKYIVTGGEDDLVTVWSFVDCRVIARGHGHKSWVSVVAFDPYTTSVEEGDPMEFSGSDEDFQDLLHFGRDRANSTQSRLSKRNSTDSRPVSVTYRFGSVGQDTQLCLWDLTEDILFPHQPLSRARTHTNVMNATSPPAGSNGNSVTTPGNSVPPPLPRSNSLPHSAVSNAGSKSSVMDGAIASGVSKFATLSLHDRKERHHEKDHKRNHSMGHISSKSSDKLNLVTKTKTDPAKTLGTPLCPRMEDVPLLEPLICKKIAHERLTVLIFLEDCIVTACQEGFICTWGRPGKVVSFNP

Turning to `CC(C)(C)NS(=O)(=O)c1ccc(NC(=O)[C@H](Cc2ccccc2)NC(=O)c2ccc(F)cc2)cc1` [compound 39, CMPD-39], at USP19, the remaining activity at 1 µM was 107%, the remaining activity at 10 µM was found to be 99.7% and the remaining activity at 100 µM is 99.8%. Besides, on USP46/UAF1/WDR20, the remaining activity at 1 µM came out at 110%, the remaining activity at 10 µM came to 97.5% and the remaining activity at 100 µM amounted to 97.4%.
